Data reported in patent US11591326B2, “Inhibitors of protein arginine methyltransferase 5 (PRMT5), pharmaceutical products thereof, and methods thereof” (PHARMABLOCK SCIENCES (NANJING), INC., priority 2018, dated 2023).
Where two headings read alike, the source gives them in different places.

Key:
MDA-MB-453 = test: Breast cancer panel proliferation inhibition, MDA-MB-453; type: cell-based; details: Homo sapiens
Method: (§1) Inhibitory ability of compounds synthesized on the proliferation of three panels of cancer cell lines, including 5 breast cancer, 6 liver cancer, and 3 lung cancer cell lines were evaluated. Exponentially growing cells were seeded in the media of choice at various cell densities in 384-well plates with 20 ul per well and incubated overnight at 37° C., 5% CO2 incubator. Compounds were prepared as 10-point, 3-fold serial dilutions in DMSO, beginning at 6 mM. 1 μl of DMSO solutions from the compound stock plates were added to 99 ul of cell media (final top concentration of compound in the assay was 30 uM and the final concentration of DMSO was 0.5%). 20 μL of compound solutions in media were added to each well of plates with cells seeded. After adding compound solutions, assay plates were incubated for 8 and 12 days, respectively, at 37° C., 5% CO2. During this incubation period, cell media was changed every 4 days. After removing old media from cell plates, 40 ul of media with testing compounds dissolved, which were prepared by adding 1 ul of compound DMSO serial solutions to 199 ul of cell media, were added to the assay plates with the same layout as they were initially prepared. After 8 or 12 days, cell viability was measured using the CellTiter-Glo assay kit from Promega (Madison, Wis., USA) by quantitating the ATP present in the cell cultures. 20 μL of CellTiter-Glo reagent was added to each well of the cell plates. Luminescence was read after 10 minute of incubation with the Envision multiple plate reader from PerkinElmer (Waltham, Mass., USA). The concentrations of compounds inhibiting cell viability by 50% (IC50 values) were determined using a sigmoidal dose-response model (variable slopes, four parameters) in Prism 7 (La Jolla, Calif., USA).

[1] = tested on: Mantle Cell Lymphoma Z-138 cell; test: Cell proliferation inhibition, Z-138 (CCK8); type: cell-based; details: Homo sapiens, Z-138, 96 h, Z-138, incubated 4 days
Description: Materials and Cell Lines: Z-138, U251, and MIA PaCa2 cells were purchased from ATCC (American Type Culture Collection, Manassas, Va.) and Chinese Academy of Science (Shanghai, China). Iscove's Modified Dulbecco's Medium (IMDM), Dulbecco's Modified Eagle Medium (DMEM), penicillin-streptomycin, heat inactivated fetal bovine serum (FBS), and horse serum was purchased from ThermoFisher, Waltham, Mass., USA. Corning 96- and 384-well cell culture plates were purchased from ThermoFisher, Waltham, Mass., USA. Cell-Titer Glo® was purchased from Promega Corporation, Madison, Wis., USA.
In order to evaluate the inhibitory ability of compounds synthesized on the proliferation of the Mantle Cell Lymphoma Z-138 cell, exponentially growing cells were seeded in the media of IMDM with 10% horse serum and 1% penicillin-streptomycin at a concentration of 30000 cells/ml in a 96-well plate with 100 ul per well and incubated overnight at 37° C., 5% CO2 incubator. Compounds were prepared as 10-point, 3-fold serial dilutions in DMSO, beginning at 6 mM. 1 μl of DMSO solutions from the compound stock plates were added to 99 ul of cell culture media (final top concentration of compound in the assay was 30 uM and the final concentration of DMSO was 0.5%). 100 μL of compound solutions in media were added to each well of Z-138 cell plates. After adding compound solutions, assay plates were incubated for 4 days at 37° C., 5% CO2. Cell viability was measured using the Cell Counting Kit-8 (CCK8) obtained from the Beyotime Biotehnology, Shanghai, China. 20 ul of CCK8 reagent was added to each well of the Z-138 assay plate which was incubated at 37° C. for 2 hours. O.D. at 450 nm was read with the FlexStation 3 microplate reader (Molecular Devices, Sunnyvale, Calif. 94089 USA). The concentrations of compounds inhibiting cell viability by 50% (IC50 values) were determined using a sigmoidal dose-response model (variable slopes, four parameters) in Prism 7 (La Jolla, Calif.).

Huh1 = test: Liver cancer panel proliferation inhibition, Huh1; type: cell-based; details: Homo sapiens
Method: as §1

Huh7 = test: Liver cancer panel proliferation inhibition, Huh7; type: cell-based; details: Homo sapiens
Method: as §1

[2] = Pharmacokinetic study in dog; type: in vivo, male beagle dogs; details: male, beagle; for plasma clearance / Vd: 2 mg/kg, Dog PK (IV) 2 mpk; for plasma clearance: read-out: Clint (converted); for Vd / AUC(0-t) / Cmax / Tmax / bioavailability / half-life: plasma; for Vd: read-out: Vss; for AUC(0-t) / Cmax / Tmax / bioavailability / half-life: 10 mg/kg, Dog PK (PO) 10 mpk; for half-life: read-out: T½ (converted)
Method: None naïve male beagle dogs (8-10 kg; purchased from Beijing Marshall Biotechnology Co. LTD; n=18, with 3 per compound) were treated with a single dose of compounds being tested at 2 mg/kg by intravenous tail-vein injection and 10 mg/kg by oral gavage administration, with both doses formulated in 5% DMSO+45% PEG400 in water. Animals upon PO administration were fasted overnight and fed 4 hours after dosing. Animals upon IV administration were free access to food and water. The study was performed in accordance with the guidelines and standards of the Association for Assessment and Accreditation of Laboratory Animal Care (AAALAC International) and the National Institutes of Health.
The animal was restrained manually at the designated time points, and approximately 500 μL of each blood/time point was collected via cephalic vein and put on wet ice, then centrifuged at 2000 g for 5 min (4° C.) within 15 minutes post sampling. Plasma samples were stored at approximately −70° C. until analysis. An aliquot of 20 μL sample was added with 200 μL IS (Diclofenac, 100 ng/mL) in ACN. The mixture was vortexed for 10 min and centrifuged at 5800 rpm for 10 min. An aliquot of 1 μL supernatant was injected for LC-MS/MS analysis. For 10×-diluted sample, an aliquot of 2 μL sample was added with 18 μL blank plasma. The sample preparation procedure is same with no-diluted sample. Standard calibration curves were constructed by analyzing a series of control plasma aliquots containing Diclofenac (100 ng/mL) as an internal standard and 3-3,000 ng/mL testing compounds. Compound concentrations were determined with UPLC-MS/MS-22 (Triple Quad™ 6500).

MHCC-97H = test: Liver cancer panel proliferation inhibition, MHCC-97H; type: cell-based; details: Homo sapiens, MHCC97H
Method: as §1

MDA-MB-468 = test: Breast cancer panel proliferation inhibition, MDA-MB-468; type: cell-based; details: Homo sapiens
Method: as §1

Hep G2 = test: Liver cancer panel proliferation inhibition, Hep G2; type: cell-based; details: Homo sapiens
Method: as §1

[3] = 192 h, MDA-MB-453, 8 days, read-out: IC50 (μM) 8 days
[4] = 288 h, MDA-MB-453, 12 days, read-out: IC50 (μM) 12 days
[5] = HuH-1, 192 h, Huh1, 8 days, read-out: IC50 (μM) 8 days
[6] = HuH-1, 288 h, Huh1, 12 days, read-out: IC50 (μM) 12 days
[7] = Huh-7, 192 h, Huh7, 8 days, read-out: IC50 (μM) 8 days
[8] = Huh-7, 288 h, Huh7, 12 days, read-out: IC50 (μM) 12 days
[9] = 192 h, 8 days, read-out: IC50 (μM) 8 days
[10] = 288 h, 12 days, read-out: IC50 (μM) 12 days
[11] = 192 h, MDA-MB-468, 8 days, read-out: IC50 (μM) 8 days
[12] = 288 h, MDA-MB-468, 12 days, read-out: IC50 (μM) 12 days
[13] = HepG2, 192 h, Hep G2, 8 days, read-out: IC50 (μM) 8 days
[14] = HepG2, 288 h, Hep G2, 12 days, read-out: IC50 (μM) 12 days

Structure (SMILES)	IC50 (MDA-MB-453; [3])	IC50 (MDA-MB-453; [4])	IC50 [1]	IC50 (Huh1; [5])	IC50 (Huh1; [6])	IC50 (Huh7; [7])	IC50 (Huh7; [8])	plasma clearance [2]	Vd [2]	AUC(0-t) [2]	Cmax [2]	Tmax [2]	bioavailability [2]	half-life [2]	IC50 (MHCC-97H; [9])	IC50 (MHCC-97H; [10])	IC50 (MDA-MB-468; [11])	IC50 (MDA-MB-468; [12])	IC50 (Hep G2; [13])	IC50 (Hep G2; [14])
CC(=O)N1CCC(Nc2ccc3c(c2)C(=O)N(C[C@H](O)CN2CCc4ccccc4C2)CC3)CC1 [Compound 24a, (R)-7-((1-acetylpiperidin-4-yl)amino)-2-(3-(3,4-dihydroisoquinolin-2(1H)-yl)-2-hydroxypropyl)-3,4-dihydroisoquinolin-1(2H)-one]	0.28 µM	0.19 µM	0.014 µM	0.44 µM	0.041 µM	0.28 µM	0.072 µM	4.27 mL/min/kg	1.81 ± 0.13 L/kg	35100 ± 7990 ng·h/mL	4440 ± 680 ng/mL	2 h	89.8 ± 20.5%	3.76 ± 0.195 h	0.02 µM	0.029 µM	0.042 µM	0.0041 µM	2.87 µM	0.77 µM
CC(=O)N1CCC(Nc2ccc3c(c2)C(=O)N(C[C@H](O)CN2CCc4ccccc4C2)CCO3)CC1 [Compound 52a, (R)-7-((1-acetylpiperidin-4-yl)amino)-4-(3-(3,4-dihydroisoquinolin-2(1H)-yl)-2-hydroxypropyl)-3,4-dihydrobenzo[f][1,4]oxazepin-5(2H)-one]	0.14 µM	0.06 µM	0.014 µM	0.54 µM	0.075 µM	0.26 µM	0.092 µM	5.17 mL/min/kg	1.56 ± 0.041 L/kg	42100 ± 13200 ng·h/mL	5550 ± 1590 ng/mL	1.33 ± 0.577 h	133 ± 38.6%	4.81 ± 1 h	0.023 µM	0.024 µM	0.022 µM	0.0038 µM	3.09 µM	0.97 µM
CC(=O)N1CCC(Nc2cc(C(=O)NC[C@H](O)CN3CCc4ccccc4C3)ncn2)CC1 [Compound C3, reference compound]	1.22 µM	0.16 µM	0.07 µM	1.92 µM	0.085 µM	0.23 µM	0.073 µM	13.5 mL/min/kg	1.32 ± 0.144 L/kg	13300 ± 3280 ng·h/mL	3000 ± 567 ng/mL	1.67 ± 0.577 h	105 ± 25.5%	3.37 ± 0.64 h	0.089 µM	0.086 µM	0.044 µM	0.0074 µM	> 10 µM	3.26 µM
